Data: patent US10604526B2, “Chemokine receptor modulators and uses thereof” (RAPT THERAPEUTICS, INC., priority 2016, dated 2020)

biological target: T1, hCCR4 (Homo sapiens, UniProt P51679); experiment: Calcium flux assay; assay type: cell-based; conditions: Chem5-hCCR4 cells, CCL22 at EC80 of 1.5 nM, FLIPR Calcium 6 dye; read-out: Potency (IC50)
T1 sequence (P51679 1-360): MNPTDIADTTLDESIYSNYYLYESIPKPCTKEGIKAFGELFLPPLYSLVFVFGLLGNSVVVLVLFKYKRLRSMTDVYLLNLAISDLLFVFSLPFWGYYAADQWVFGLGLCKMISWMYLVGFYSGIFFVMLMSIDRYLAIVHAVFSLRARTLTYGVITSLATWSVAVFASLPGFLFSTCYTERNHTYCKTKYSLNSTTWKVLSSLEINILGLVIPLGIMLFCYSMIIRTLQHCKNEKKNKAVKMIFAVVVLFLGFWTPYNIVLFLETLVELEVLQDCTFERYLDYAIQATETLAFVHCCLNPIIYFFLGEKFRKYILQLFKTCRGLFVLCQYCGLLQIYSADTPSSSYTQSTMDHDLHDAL
Method: Calcium Flux Assay. Compounds were evaluated in a calcium flux assay substantially performed as follows. Chem5-hCCR4 cells (EMD Millipore, Hayward, Calif.; HTS009C) were cultured under standard conditions and frozen in aliquots of 10×10^6 cells/mL. The day prior to compound testing, a vial was rapidly thawed and pipetted into 20 mL media (DMEM+10% FBS+1% Pen-Strep+1% L-glutamine). Cells were harvested by centrifugation and re-suspended in fresh culture medium. 25 μL of cell suspension was seeded into 384-well plates (Corning, Tewksbury, Mass.; CellBind with black wall/clear bottom). The plates were centrifuged at 300 g for 10 seconds and incubated overnight at 37° C. and 5% CO2. The day of compound testing, media was removed from the plates and 25 μL serum free media was added to each well. Plates were returned to the incubator for 2 h. 25 μL assay buffer (Hank's balanced salt solution+20 mM HEPES pH 7.4) containing FLIPR Calcium 6 dye (Molecular Devices, Sunnyvale, Calif.; # R8191) and probenecid (2.5 mM) was added to each well and incubated at 37° C. and 5% CO2 for 2 h. Compounds in DMSO were added to the plates using an HP D300e digital dispenser, and all wells were normalized to contain 0.25 μL (0.5%) DMSO. Plates were incubated for 1 hour at 37° C. and 5% CO2. CCL22 (Peprotech; Rockyhill, N.J.) was diluted in assay buffer containing 0.1% BSA to 7.5 nM (corresponding to 5×EC80 of 1.5 nM).
Assay plates and working solution of CCL22 were transferred to the FlexStation plate reader (Molecular Devices) at 37° C. for 5 min of equilibration. Fluorescence recordings at 485 excitation/525 emission were performed at 2.5 second intervals. At t=16 seconds, 12.5 μL of CCL22 solution was added to each well and reads continued for 30 seconds at 2.5 second intervals. The minimum fluorescence (Fmin) was calculated by averaging the reads prior to ligand addition and the change in fluorescence (ΔF) was calculated by subtracting the Fmin from the average of the reads following ligand addition. The response ΔF/Fmin was plotted as a function of the compound concentration and the IC50 values were determined by non-linear regression analysis using a 4-parameter fit in either PRISM software (GraphPad; La Jolla, Calif.) or Dotmatics Browser.

Row | Compound | IC50
1 | Cc1nn([C@H](C)c2ccc(Cl)cc2Cl)c2nc(N3CC(C4CCCN(CCC(=O)O)C4)C3)cnc12 (mixture of isomers) [Example 7, 3-((S)-3-(1-(1-((R)-1-(2,4-Dichlorophenyl)ethyl)-3-methyl-1H-pyrazolo[3,4-b]pyrazin-6-yl)azetidin-3-yl)piperidin-1-yl)propanoic acid and 3-((R)-3-(1-(1-((R)-1-(2,4-dichlorophenyl)ethyl)-3-methyl-1H-pyrazolo[3,4-b]pyrazin-6-yl)azetidin-3-yl)piperidin-1-yl)propanoic acid] | 100 to 500 nM
2 | Cc1nn([C@H](C)c2ccc(Cl)cc2Cl)c2nc(N3CC(C4CCCN(C5CC(C(=O)O)C5)C4)C3)cnc12 (mixture of isomers) [Example 16] | > 500 nM
3 | C[C@H](c1ccc(Cl)cc1Cl)n1nc(C#N)c2ncc(N3CC(C4CCCN(CCS(C)(=O)=O)C4)C3)nc21 (mixture of isomers) [Example 23, 1-((R)-1-(2,4-Dichlorophenyl)ethyl)-6-(3-((S)-1-(2-(methylsulfonyl)ethyl)piperidin-3-yl)azetidin-1-yl)-1H-pyrazolo[3,4-b]pyrazine-3-carbonitrile and 1-((R)-1-(2,4-dichlorophenyl)ethyl)-6-(3-((R)-1-(2-(methylsulfonyl)ethyl)piperidin-3-yl)azetidin-1-yl)-1H-pyrazolo[3,4-b]pyrazine-3-carbonitrile] | < 100 nM
4 | C[C@H](c1ccc(Cl)cc1Cl)n1nc(C#N)c2ncc(N3CC(C4CCCN(CCC(N)=O)C4)C3)nc21 (mixture of isomers) [Example 24, 3-((S)-3-(1-(3-Cyano-1-((R)-1-(2,4-dichlorophenyl)ethyl)-1H-pyrazolo[3,4-b]pyrazin-6-yl)azetidin-3-yl)piperidin-1-yl)propanamide and 3-((R)-3-(1-(3-cyano-1-((R)-1-(2,4-dichlorophenyl)ethyl)-1H-pyrazolo[3,4-b]pyrazin-6-yl)azetidin-3-yl)piperidin-1-yl)propanamide] | < 100 nM
5 | CC(O)CN1CCCC(C2CN(c3cnc4c(C#N)nn([C@H](C)c5ccc(Cl)cc5Cl)c4n3)C2)C1 (mixture of isomers) [Example 27] | < 100 nM
6 | Cc1nn([C@H](C)c2ccc(Cl)cc2Cl)c2nc(N3CC(C4CCCN(CCO)C4)C3)ncc12 (mixture of isomers) [Example 37, 2-((S)-3-(1-(1-((R)-1-(2,4-Dichlorophenyl)ethyl)-3-methyl-1H-pyrazolo[3,4-d]pyrimidin-6-yl)azetidin-3-yl)piperidin-1-yl)ethan-1-ol and 2-((R)-3-(1-(1-((R)-1-(2,4-dichlorophenyl)ethyl)-3-methyl-1H-pyrazolo[3,4-d]pyrimidin-6-yl)azetidin-3-yl)piperidin-1-yl)ethan-1-ol] | < 100 nM
7 | Cc1nn([C@H](C)c2ccc(Cl)cc2Cl)c2nc(N3CC(C4CCCN(CCO)C4)C3)cnc12 (mixture of isomers) [Example 40, 2-((S)-3-(1-(1-((R)-1-(2,4-Dichlorophenyl)ethyl)-3-methyl-1H-pyrazolo[3,4-b]pyrazin-6-yl)azetidin-3-yl)piperidin-1-yl)ethan-1-ol and 2-((R)-3-(1-(1-((R)-1-(2,4-dichlorophenyl)ethyl)-3-methyl-1H-pyrazolo[3,4-b]pyrazin-6-yl)azetidin-3-yl)piperidin-1-yl)ethan-1-ol] | < 100 nM
8 | C[C@H](c1ccc(Cl)cc1Cl)n1nc(C(F)(F)F)c2ncc(N3CC(C4CCCN(CCO)C4)C3)nc21 (mixture of isomers) [Example 42, 2-((R)-3-(1-(1-((R)-1-(2,4-Dichlorophenyl)ethyl)-3-(trifluoromethyl)-1H-pyrazolo[3,4-b]pyrazin-6-yl)azetidin-3-yl)piperidin-1-yl)ethan-1-ol and 2-((S)-3-(1-(1-((R)-1-(2,4-dichlorophenyl)ethyl)-3-(trifluoromethyl)-1H-pyrazolo[3,4-b]pyrazin-6-yl)azetidin-3-yl)piperidin-1-yl)ethan-1-ol] | 100 to 500 nM
9 | CC(=O)NCCN1CCCC(C2CN(c3cnc4c(C(F)(F)F)nn([C@H](C)c5ccc(Cl)cc5Cl)c4n3)C2)C1 (mixture of isomers) [Example 45, N-(2-((R)-3-(1-(1-((R)-1-(2,4-Dichlorophenyl)ethyl)-3-(trifluoromethyl)-1H-pyrazolo[3,4-b]pyrazin-6-yl)azetidin-3-yl)piperidin-1-yl)ethyl)acetamide and N-(2-((S)-3-(1-(1-((R)-1-(2,4-dichlorophenyl)ethyl)-3-(trifluoromethyl)-1H-pyrazolo[3,4-b]pyrazin-6-yl)azetidin-3-yl)piperidin-1-yl)ethyl)acetamide] | 100 to 500 nM
10 | C[C@H](c1ccc(Cl)cc1Cl)n1nc(C(F)(F)F)c2ncc(N3CC(C4CCCN(CCNS(C)(=O)=O)C4)C3)nc21 (mixture of isomers) [Example 46, N-(2-((R)-3-(1-(1-((R)-1-(2,4-Dichlorophenyl)ethyl)-3-(trifluoromethyl)-1H-pyrazolo[3,4-b]pyrazin-6-yl)azetidin-3-yl)piperidin-1-yl)ethyl)methanesulfonamide and N-(2-((S)-3-(1-(1-((R)-1-(2,4-dichlorophenyl)ethyl)-3-(trifluoromethyl)-1H-pyrazolo[3,4-b]pyrazin-6-yl)azetidin-3-yl)piperidin-1-yl)ethyl)methanesulfonamide] | 100 to 500 nM
11 | CC(C)S(=O)(=O)NCCN1CCCC(C2CN(c3cnc4c(C(F)(F)F)nn([C@H](C)c5ccc(Cl)cc5Cl)c4n3)C2)C1 (mixture of isomers) [Example 47, N-(2-((R)-3-(1-(1-((R)-1-(2,4-Dichlorophenyl)ethyl)-3-(trifluoromethyl)-1H-pyrazolo[3,4-b]pyrazin-6-yl)azetidin-3-yl)piperidin-1-yl)ethyl)propane-2-sulfonamide and N-(2-((S)-3-(1-(1-((R)-1-(2,4-dichlorophenyl)ethyl)-3-(trifluoromethyl)-1H-pyrazolo[3,4-b]pyrazin-6-yl)azetidin-3-yl)piperidin-1-yl)ethyl)propane-2-sulfonamide] | < 100 nM
12 | CC(C)C(=O)NCCN1CCCC(C2CN(c3cnc4c(C(F)(F)F)nn([C@H](C)c5ccc(Cl)cc5Cl)c4n3)C2)C1 (mixture of isomers) [Example 48, N-(2-((R)-3-(1-(1-((R)-1-(2,4-Dichlorophenyl)ethyl)-3-(trifluoromethyl)-1H-pyrazolo[3,4-b]pyrazin-6-yl)azetidin-3-yl)piperidin-1-yl)ethyl)isobutyramide and N-(2-((S)-3-(1-(1-((R)-1-(2,4-dichlorophenyl)ethyl)-3-(trifluoromethyl)-1H-pyrazolo[3,4-b]pyrazin-6-yl)azetidin-3-yl)piperidin-1-yl)ethyl)isobutyramide] | < 100 nM
13 | COC(=O)NCCN1CCCC(C2CN(c3cnc4c(C(F)(F)F)nn([C@H](C)c5ccc(Cl)cc5Cl)c4n3)C2)C1 (mixture of isomers) [Example 49, Methyl (2-((R)-3-(1-(1-((R)-1-(2,4-dichlorophenyl)ethyl)-3-(trifluoromethyl)-1H-pyrazolo[3,4-b]pyrazin-6-yl)azetidin-3-yl)piperidin-1-yl)ethyl)carbamate and methyl (2-((S)-3-(1-(1-((R)-1-(2,4-dichlorophenyl)ethyl)-3-(trifluoromethyl)-1H-pyrazolo[3,4-b]pyrazin-6-yl)azetidin-3-yl)piperidin-1-yl)ethyl)carbamate] | < 100 nM
14 | C[C@H](c1ccc(Cl)cc1Cl)n1nc(C(F)(F)F)c2ncc(N3CC(C4CCCN(CCCS(C)(=O)=O)C4)C3)nc21 (mixture of isomers) [Example 50, 1-((R)-1-(2,4-Dichlorophenyl)ethyl)-6-(3-((R)-1-(3-(methylsulfonyl)propyl)piperidin-3-yl)azetidin-1-yl)-3-(trifluoromethyl)-1H-pyrazolo[3,4-b]pyrazine and 1-((R)-1-(2,4-dichlorophenyl)ethyl)-6-(3-((S)-1-(3-(methylsulfonyl)propyl)piperidin-3-yl)azetidin-1-yl)-3-(trifluoromethyl)-1H-pyrazolo[3,4-b]pyrazine] | < 100 nM
